# “Also recorded” adds a separate entry of the source.
# Experiments:
# human PBMCs [1] = assay: Viability of human PBMCs (CellTiter-Glo); type: cell-based; conditions: 2 days post-activation; lipids combined with R848
# Procedure: (§1) Isolation of PBMCs from Whole Blood. PBMCs were isolated from whole blood using density gradient centrifugation with Ficoll-Paque PLUS (Cytivia). Whole blood was diluted 1:1 with PBS, layered on top of Ficoll-Paque PLUS and centrifuged at 1000×g for 30 minutes at room temperature. PBMCs were collected, washed twice in PBS, and incubated with Ack lysis buffer (Lonza) to remove any remaining red blood cells.
# (§2) Cell Culture and Stimulation. […] Cells were plated at 1×10^5 (canine cells) or 1×10^6 (human cells) per well in 96-well flat bottom tissue culture plates. Lyophilized Vaccigrade R848 (Invivogen) was reconstituted and diluted according to manufacturer's recommendations and added to cells at a final concentration of 1 μg/mL.
# Quantification of Cell Viability.
# human moDC = assay: Viability of human moDC with surfactant formulations of 22:0 Lyso PC; type: cell-based; conditions: solvent evaporation method with KP407, filtered, target 82.5 uM + R848
# Procedure: Formulation of 22:0 Lyso PC with poloxamers. […] 22:0 Lyso PC was resuspended in the surfactant solution and agitated at 4° C. for an hour. Solutions were then brought to room temperature to form micelles. Using 10× concentrated PBS, salts were added to the solution to stabilize molecular interactions and provide physiologically relevant osmolarity. Lipid solutions were either left unfiltered or filtered through a pore size of 0.45 um to remove insoluble lipid flakes. Lipids were further diluted and added onto human moDC cell cultures along with 1 ug/mL R848. Targeted lipid concentrations were based on the scenario where the lipid is fully bio-available prior to filtration. However, filtration of insoluble lipid reduces the bio-available supply of lipid. Thus, IL-1beta as a measure of hyperactivity can be used as an indicator of 22:0 Lyso PC incorporation into micelles and thus into solution. One day after hyperactivation, cell culture supernatants are collected to measure cytokine secretion, and cells are used to measure viability via Cell Titer-Glo.
# Salts are added to the solution to stabilize the molecular interactions and bring the solution to a physiologically relevant osmolarity. The solutions are then either left unfiltered or filtered through a pore size of 0.45 um to remove insoluble lipid flakes or particle aggregates. […]
# human PBMCs [2] = assay: Cytokine secretion (IL-1β, IFNγ, TNFα) by human PBMCs; type: cell-based
# Procedure: as §1, §2
# Quantification of Cytokine Secretion. IL-1β secretion from human PBMCs was assessed using one of the following kits: ELISA MAX Deluxe Set Human IL-1β kit (Biolegend), Invitrogen Human IL-1β kit, or the Lumit™ Human IL-1β Immunoassay (Promega). IFNγ secretion from human PBMCs was assessed using the ELISA MAX Deluxe Set Human IFNγ (Biolegend) and TNFα secretion from human PBMCs was assessed using the Human TNFα Uncoated ELISA kit (Invitrogen). ELISAs were performed according to manufacturer's instructions with the following modifications: i) total sample+buffer volume for incubation was reduced from 100 μL to 50 μL; ii) the top standard was prepared at […], with two-fold dilutions to […]; and iii) sample incubation was completed overnight at 4 C on an orbital shaker. Lumit™ assays were performed according to manufacturer's instructions. IL-1β secretion from canine PBMCs was assessed using the Canine IL-1β/IL-1F2 DuoSet ELISA (R&D) according to manufacturer's instructions with the following modifications: i) total sample+buffer volume for incubation was reduced from 100 μL to 50 μL; ii) sample incubation was completed overnight at 4° C. on an orbital shaker. For all ELISAs, absorbance was measured at 450 nm, with a 570 nm correction, using a Spectramax M5e plate reader (Molecular Devices). For Lumit™ assays, luminescence was measured on all wavelengths using a Spectramax M5e plate reader (Molecular Devices) with an integration time of 500 ms. To determine cytokine concentrations in supernatants, sample concentrations were interpolated using a standard curve via 4PL analysis on GraphPad Prism 9 (GraphPad Software). The interpolated results of samples were then adjusted for any dilutions made to the supernatant.
# non-human primate PBMCs = assay: Cytokine secretion by non-human primate PBMCs (LegendPlex); type: cell-based, cynomolgus macaques
# Procedure: Non-human primate PBMC hyperactivation. Whole blood from cynomolgus macaques was diluted with an equal volume of PBS. A solution of 90% Ficoll-Paque PLUS and 10% RPMI was made, and diluted whole blood was overlayed on top of the diluted Ficoll. Cells were centrifuged at 1000 rcf for 30 minutes at room temperature with no brakes. The buffy coat layer was collected and washed twice with PBS. If red blood cell contamination was present, cells were incubated in ACK lysis buffer for 2 minutes before being washed with PBS to remove lysed red blood cells.
# Isolated PBMC were plated at 1×10^6 cells/well and cultured with or without hyperactivating stimuli. After 2 days incubation, cells were assessed for viability, and cell culture supernatant was used to measure cytokine output. Commercially available kits such as Biolegend LegendPlex kits were used as directed by manufacturer's protocol to quantify cytokines of interest.
# PBMC were obtained from 13 cynomolgus macaques. Each activation condition was tested in triplicate, and the mean value of the triplicate is graphed for the animal sample. Repeated measures one-way ANOVA was used to test for statistical significance followed by Dunnett's multiple comparisons test.
# [3] = test system: human monocyte-derived dendritic cells (moDCs); assay: Lipid titration: IL-1β secretion by LPS-activated human moDCs; type: cell-based
# [4] = lipid combined with R848, 2 days
# [5] = 82.5 uM lipid + R848 vs R848 alone, 2 days
compound,measurement,setting,value
"CCCCCCCCCCCCCCCCCCCCCC(=O)OC[C@@H](O)COP(=O)([O-])OCC[N+](C)(C)C [22:0 LYSO PC, 1-behenoyl-2-hydroxy-sn-glycero-3-phosphocholine]",human PBMC viability (in words),human PBMCs [1],remain viable
same,reduction of cell viability,human moDC,approximately 25%
same,IL-1β secretion (in words),"human PBMCs [2]; lipid 82.5 μM combined with R848 1 μg/mL, 2 days",elevated; also recorded: comparable or higher
same,"IFNγ secretion, fold change per donor relative to R848 alone (in words)",human PBMCs [2]; [4],highest fold change per donor; also recorded: comparable or higher
same,"TNFα secretion, fold change per donor relative to R848 alone (in words)",human PBMCs [2]; [4],highest fold change per donor; also recorded: comparable or higher
same,cytokine fold changes relative to R848 alone (in words),non-human primate PBMCs; 41.3 uM lipid + R848,not as markedly increased
same,IL-1beta output (in words),"non-human primate PBMCs; 82.5 uM lipid + R848 1 μg/mL vs R848 alone, 2 days",increased the IL-1beta output
same,IFN-beta secretion (in words),non-human primate PBMCs; [5],increased
same,IFN-gamma secretion (in words),non-human primate PBMCs; [5],significantly increased
same,IL-8 secretion (in words),non-human primate PBMCs; [5],increased
same,IL-17a secretion (in words),non-human primate PBMCs; [5],increased
same,IL-23 secretion (in words),non-human primate PBMCs; [5],increased
same,concentration lower than PGPC for comparable IL-1beta secretion,"[3]; 10.3 μM 22:0 Lyso PC vs 82.5 μM PGPC, + LPS",~8 times
same,IL-1beta secretion (in words),[3]; 10.3 μM lipid + LPS,retained its ability to induce IL-1beta secretion
same,IL-1β secretion,"[3]; 10.3 μM lipid + LPS 1 μg/mL, 2 days, Table 1-5",224.8 pg/mL
same,IL-1beta secretion (in words),[3]; 20.6 μM lipid + LPS,increased IL-1beta secretion
same,IL-1β secretion,"[3]; 20.6 μM lipid + LPS, human moDCs, 4 donors, mean (SD in wrapped line below)",512.6 pg/mL
same,"lipid activity index, ranking in words",[3]; lipid 1.3-82.5 μM + LPS,most potent activity by far
same,Activity Units (AU) ± SD (lipid activity index),"[3]; reciprocal of lowest concentration giving IL-1β two-fold over LPS x highest IL-1β signal, lipid 1.3-82.5 μM + LPS",370.00 ± 376.36 AU

# — patent US20240197869A1, “HYPERACTIVATORS OF MAMMALIAN DENDRITIC CELLS” (Corner Therapeutics, Inc., priority 2021, published 2024)
